What was measured:
Assay in all cases: relative viability (nuclei count vs DMSO), 5 days (fraction); higher = more cells survive
201T = system: 201T
Method in brief: (§1)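 One day after seeding in 1536-well plates, lung cancer cell lines were dosed by pin tool. Dosing was either single-drug or a fixed anchor-drug dose plus five library-drug doses (not always all listed) in √10 steps. After 5 days, nuclei were stained in one fix-and-stain step and counted on 4× images, and relative viability is the nuclei count of treated wells over that of vehicle wells, given as the median of duplicate plates.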

ABC-1 = system: ABC-1
Method in brief: as §1

CAL-12T = system: CAL-12T
Method in brief: as §1

EMC-BAC-2 = system: EMC-BAC-2
Method in brief: as §1

H3255 = system: H3255
Method in brief: as §1

HOP-62 = system: HOP-62
Method in brief: as §1

LK-2 = system: LK-2
Method in brief: as §1

LXF-289 = system: LXF-289
Method in brief: as §1

NCI-H1651 = system: NCI-H1651
Method in brief: as §1

NCI-H1734 = system: NCI-H1734
Method in brief: as §1

NCI-H1755 = system: NCI-H1755
Method in brief: as §1

NCI-H2009 = system: NCI-H2009
Method in brief: as §1

NCI-H2087 = system: NCI-H2087
Method in brief: as §1

NCI-H2126 = system: NCI-H2126
Method in brief: as §1

NCI-H2170 = system: NCI-H2170
Method in brief: as §1

NCI-H3122 = system: NCI-H3122
Method in brief: as §1

NCI-H322M = system: NCI-H322M
Method in brief: as §1

NCI-H441 = system: NCI-H441
Method in brief: as §1

NCI-H596 = system: NCI-H596
Method in brief: as §1

NCI-H647 = system: NCI-H647
Method in brief: as §1

PC-14 = system: PC-14
Method in brief: as §1

SK-MES-1 = system: SK-MES-1
Method in brief: as §1

Cc1cnc(-c2cnc(NCCNc3ccc(C#N)cn3)nc2-c2ccc(Cl)cc2Cl)[nH]1 + Cc1nc(NC(=O)N2CCC[C@H]2C(N)=O)sc1-c1ccnc(C(C)(C)C(F)(F)F)c1 [Alpelisib] (partner 2 µM)
relative viability (201T; first compound 0.08 µM): 1.07 | relative viability (201T; first compound 0.253 µM): 0.959 | relative viability (201T; first compound 0.8 µM): 1.01 | relative viability (201T; first compound 2.53 µM): 1.02 | relative viability (ABC-1; first compound 0.08 µM): 0.961 | relative viability (ABC-1; first compound 0.253 µM): 0.867 | relative viability (ABC-1; first compound 0.8 µM): 1.02 | relative viability (ABC-1; first compound 2.53 µM): 0.814 | relative viability (CAL-12T; first compound 0.08 µM): 1.2 | relative viability (CAL-12T; first compound 0.253 µM): 1.16 | relative viability (CAL-12T; first compound 0.8 µM): 1.2 | relative viability (CAL-12T; first compound 2.53 µM): 0.848 | relative viability (EMC-BAC-2; first compound 0.08 µM): 0.8 | relative viability (EMC-BAC-2; first compound 0.253 µM): 0.72 | relative viability (EMC-BAC-2; first compound 0.8 µM): 0.743 | relative viability (EMC-BAC-2; first compound 2.53 µM): 0.749 | relative viability (H3255; first compound 0.08 µM): 0.886 | relative viability (H3255; first compound 0.253 µM): 0.618 | relative viability (H3255; first compound 0.8 µM): 0.802 | relative viability (H3255; first compound 2.53 µM): 0.73 | relative viability (HOP-62; first compound 0.08 µM): 1 | relative viability (HOP-62; first compound 0.253 µM): 0.902 | relative viability (HOP-62; first compound 0.8 µM): 0.958 | relative viability (HOP-62; first compound 2.53 µM): 1.14 | relative viability (LK-2; first compound 0.08 µM): 1.21 | relative viability (LK-2; first compound 0.253 µM): 1.05 | relative viability (LK-2; first compound 0.8 µM): 1.13 | relative viability (LK-2; first compound 2.53 µM): 1.3 | relative viability (LXF-289; first compound 0.08 µM): 1.11 | relative viability (LXF-289; first compound 0.253 µM): 1 | relative viability (LXF-289; first compound 0.8 µM): 1.05 | relative viability (LXF-289; first compound 2.53 µM): 1.08 | relative viability (NCI-H1651; first compound 0.08 µM): 1.08 | relative viability (NCI-H1651; first compound 0.253 µM): 0.903 | relative viability (NCI-H1651; first compound 0.8 µM): 0.965 | relative viability (NCI-H1651; first compound 2.53 µM): 0.991 | relative viability (NCI-H1734; first compound 0.08 µM): 0.766 | relative viability (NCI-H1734; first compound 0.253 µM): 0.673 | relative viability (NCI-H1734; first compound 0.8 µM): 0.656 | relative viability (NCI-H1734; first compound 2.53 µM): 0.633 | relative viability (NCI-H1755; first compound 0.08 µM): 0.998 | relative viability (NCI-H1755; first compound 0.253 µM): 0.851 | relative viability (NCI-H1755; first compound 0.8 µM): 0.901 | relative viability (NCI-H1755; first compound 2.53 µM): 0.896 | relative viability (NCI-H2009; first compound 0.08 µM): 1.13 | relative viability (NCI-H2009; first compound 0.253 µM): 1.14 | relative viability (NCI-H2009; first compound 0.8 µM): 1.26 | relative viability (NCI-H2009; first compound 2.53 µM): 1.05 | relative viability (NCI-H2087; first compound 0.08 µM): 1.21 | relative viability (NCI-H2087; first compound 0.253 µM): 0.892 | relative viability (NCI-H2087; first compound 0.8 µM): 1.02 | relative viability (NCI-H2087; first compound 2.53 µM): 1.06 | relative viability (NCI-H2126; first compound 0.08 µM): 0.725 | relative viability (NCI-H2126; first compound 0.253 µM): 0.756 | relative viability (NCI-H2126; first compound 0.8 µM): 0.669 | relative viability (NCI-H2126; first compound 2.53 µM): 0.766 | relative viability (NCI-H2170; first compound 0.08 µM): 0.825 | relative viability (NCI-H2170; first compound 0.253 µM): 0.702 | relative viability (NCI-H2170; first compound 0.8 µM): 0.757 | relative viability (NCI-H2170; first compound 2.53 µM): 0.778 | relative viability (NCI-H3122; first compound 0.08 µM): 0.858 | relative viability (NCI-H3122; first compound 0.253 µM): 0.771 | relative viability (NCI-H3122; first compound 0.8 µM): 0.725 | relative viability (NCI-H3122; first compound 2.53 µM): 0.762 | relative viability (NCI-H322M; first compound 0.08 µM): 0.773 | relative viability (NCI-H322M; first compound 0.253 µM): 0.754 | relative viability (NCI-H322M; first compound 0.8 µM): 0.709 | relative viability (NCI-H322M; first compound 2.53 µM): 0.733 | relative viability (NCI-H441; first compound 0.08 µM): 0.759 | relative viability (NCI-H441; first compound 0.253 µM): 0.668 | relative viability (NCI-H441; first compound 0.8 µM): 0.858 | relative viability (NCI-H441; first compound 2.53 µM): 0.7 | relative viability (NCI-H596; first compound 0.08 µM): 0.532 | relative viability (NCI-H596; first compound 0.253 µM): 0.375 | relative viability (NCI-H596; first compound 0.8 µM): 0.517 | relative viability (NCI-H596; first compound 2.53 µM): 0.469 | relative viability (NCI-H647; first compound 0.08 µM): 1.19 | relative viability (NCI-H647; first compound 0.253 µM): 1.08 | relative viability (NCI-H647; first compound 0.8 µM): 1.05 | relative viability (NCI-H647; first compound 2.53 µM): 1.22 | relative viability (PC-14; first compound 0.08 µM): 0.927 | relative viability (PC-14; first compound 0.253 µM): 0.834 | relative viability (PC-14; first compound 0.8 µM): 0.924 | relative viability (PC-14; first compound 2.53 µM): 0.802 | relative viability (SK-MES-1; first compound 0.08 µM): 1.01 | relative viability (SK-MES-1; first compound 0.253 µM): 0.888 | relative viability (SK-MES-1; first compound 2.53 µM): 0.911
